The test system of the data set is rodent carcinogenicity bioassays, tumor incidence. Kind of data set: CCRIS carcinogenicity studies. The essentials:
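Archive of carcinogenicity, mutagenicity, tumor promotion and tumor inhibition results drawn from journals, NCI reports and other sources, expert-reviewed; covers 1985-2011 and is no longer updated.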

Calls of active or inactive are those of the source. No rule for the calls is given here.

`COc1cc(OC)nc(Oc2cccc(Oc3nc(OC)cc(OC)n3)c2C(=O)O)n1`: the carcinogen call was “inactive; negative; purity 98.4%; interim sacrifices of 10 additional animals/sex/dose at” (Species: Mouse, Strain/Sex: B6C3F1/Female (50/sex/dose), Route: Oral, Dose: 0, 10, 100, 2500, 5000 ppm in diet for 104 wk, Dose: 0, 10, 100, 2500, 5000 ppm in diet for 104 wk); “inactive; negative; purity 98.4%; interim sacrifices of 10 additional animals/sex/dose at” (Species: Mouse, Strain/Sex: B6C3F1/Male (50/sex/dose), Route: Oral, Dose: 0, 10, 100, 2500, 5000 ppm in diet for 104 wk, Dose: 0, 10, 100, 2500, 5000 ppm in diet for 104 wk); “inactive; negative; purity 97.2%; interim sacrifices of 10 additional animals/sex/dose at” (Species: Rat, Strain/Sex: F344/Female (48/sex/dose), Route: Oral, Dose: 0, 20, 200, 3000, 10000 ppm in diet for 104 wk, Dose: 0, 20, 200, 3000, 10000 ppm in diet for 104 wk); “inactive; negative; purity 97.2%; interim sacrifices of 10 additional animals/sex/dose at” (Species: Rat, Strain/Sex: F344/Male (48/sex/dose), Route: Oral, Dose: 0, 20, 200, 3500, 7000 ppm in diet for 104 wk, Dose: 0, 20, 200, 3500, 7000 ppm in diet for 104 wk).

For the compound `C=C/C=C\C1C2/C=C/CC(=O)O[C@@]34C[C@@H](C)[C@]5(O)C6C=C(C)C(=O)[C@@]6(O)CC(CO)=C[C@H]5[C@@H]3[C@@]4(C)COC(=O)C2C2C(/C=C/C=C/C=C/CCC)C12` (stereo partly drawn), the carcinogen call (Species: MOUSE, Strain/Sex: CD-1/FEMALE (15), Route: DERMAL, Dose: 0, 2 UG IN 0.1 ML OF METHANOL 2/WK FOR 16 WK BEGINNING 1 WK POST CARCINOGEN DOSE THEN 5 UG 2/WK FOR 13 WK (STUDY DURATIO) was “inactive; negative”.

Take `NC[N+](=O)[O-]`: the carcinogen call by setting is: (Species: RAT, Strain/Sex: BDVI/FEMALE, Route: GAVAGE, Dose: 0, 38, 76 MG/KG 1/WK FOR DURATION OF STUDY (STUDY DURATION: LIFETIME), Dose: 0, 38, 76 MG/KG 1/WK FOR DURATION OF STUDY (STUDY DURATION: LIFETIME), Tumor Site: Type of Lesion: SPINAL CORD: NEURINOMA, SPINAL NERVES: NEURINOMA) “active; positive”; (Species: RAT, Strain/Sex: BDVI/MALE, Route: GAVAGE, Dose: 0, 38, 76 MG/KG 1/WK FOR DURATION OF STUDY (STUDY DURATION: LIFETIME), Dose: 0, 38, 76 MG/KG 1/WK FOR DURATION OF STUDY (STUDY DURATION: LIFETIME), Tumor Site: Type of Lesion: SPINAL CORD: NEURINOMA, SPINAL NERVES: NEURINOMA) “active; positive”.

`CN(C)[C@@H]1C(=O)C(C(N)=O)=C(O)[C@@]2(O)C(=O)C3=C(O)c4c(O)cccc4[C@@](C)(O)[C@H]3[C@H](O)[C@@H]12`: the carcinogen call by setting is: (Species: MOUSE, Strain/Sex: B6C3F1/FEMALE, Route: ORAL, Dose: 0, 6300, 12500 PPM IN DIET FOR 103 WK (STUDY DURATION: 103 WK), Dose: 0, 6300, 12500 PPM IN DIET FOR 103 WK (STUDY DURATION: 103 WK)) “inactive; negative”; (Species: MOUSE, Strain/Sex: B6C3F1/MALE, Route: ORAL, Dose: 0, 6300, 12500 PPM IN DIET FOR 103 WK (STUDY DURATION: 103 WK), Dose: 0, 6300, 12500 PPM IN DIET FOR 103 WK (STUDY DURATION: 103 WK)) “inactive; negative”; (Species: RAT, Strain/Sex: F344/FEMALE, Route: ORAL, Dose: 0, 25000, 50000 PPM IN DIET FOR 103 WK (STUDY DURATION: 103 WK), Dose: 0, 25000, 50000 PPM IN DIET FOR 103 WK (STUDY DURATION: 103 WK), Tumor Site: Type of Lesion: PITUITARY GLAND: ADENOMA) “equivocal”; (Species: RAT, Strain/Sex: F344/MALE, Route: ORAL, Dose: 0, 25000, 50000 PPM IN DIET FOR 103 WK (STUDY DURATION: 103 WK), Dose: 0, 25000, 50000 PPM IN DIET FOR 103 WK (STUDY DURATION: 103 WK), Tumor Site: Type of Lesion: ADRENAL GLAND: PHEOCHROMOCYTOMA) “equivocal”.

On to `CC[C@H]1CCC[C@H](O[C@H]2CC[C@H](N(C)C)[C@@H](C)O2)[C@@H](C)C(=O)C2=C[C@@H]3[C@@H](C=C[C@@H]4C[C@@H](O[C@@H]5O[C@@H](C)[C@H](OC)[C@@H](OC)[C@H]5OC)C[C@@H]34)[C@@H]2CC(=O)O1`, for which the carcinogen call is “inactive; negative” (Species: MOUSE, Strain/Sex: CD-1/FEMALE, Route: ORAL, Dose: 0, 0.0025, 0.008, 0.024, 0.0008% IN DIET FOR 18 MO (STUDY DURATION: 18 MO), Dose: 0, 0.0025, 0.008, 0.024, 0.0008% IN DIET FOR 18 MO (STUDY DURATION: 18 MO)); “inactive; negative” (Species: MOUSE, Strain/Sex: CD-1/FEMALE, Route: ORAL, Dose: 0.0025, 0.008, 0.036 % IN DIET FOR 18 MO (STUDY DURATION: 18 MO), Dose: 0.0025, 0.008, 0.036 % IN DIET FOR 18 MO (STUDY DURATION: 18 MO)); “inactive; negative” (Species: MOUSE, Strain/Sex: CD-1/MALE, Route: ORAL, Dose: 0, 0.0008, 0.0025, 0.008, 0.024, 0.036% IN DIET FOR 18 MO (STUDY DURATION: 18 MO), Dose: 0, 0.0008, 0.0025, 0.008, 0.024, 0.036% IN DIET FOR 18 MO (STUDY DURATION: 18 MO)); “inactive; negative” (Species: MOUSE, Strain/Sex: CD-1/MALE, Route: ORAL, Dose: 0.0025, 0.008, 0.036 % IN DIET FOR 18 MO (STUDY DURATION: 18 MO), Dose: 0.0025, 0.008, 0.036 % IN DIET FOR 18 MO (STUDY DURATION: 18 MO)); “inactive; negative” (Species: RAT, Strain/Sex: F344/FEMALE, Route: ORAL, Dose: 0.005, 0.02, 0.05, 0.1% IN DIET FOR 24 MO (STUDY DURATION: 24 MO), Dose: 0.005, 0.02, 0.05, 0.1% IN DIET FOR 24 MO (STUDY DURATION: 24 MO)); “inactive; negative” (Species: RAT, Strain/Sex: F344/MALE, Route: ORAL, Dose: 0.005, 0.02, 0.05, 0.1 % IN DIET FOR 24 MO (STUDY DURATION: 24 MO), Dose: 0.005, 0.02, 0.05, 0.1 % IN DIET FOR 24 MO (STUDY DURATION: 24 MO)).

With `CC(O)CN(N=O)C(=O)NCCCl` (stereo not drawn), the carcinogen call runs as follows: (Species: RAT, Strain/Sex: F344/FEMALE, Route: INTRAVESICULAR, Dose: 0, 4.6 MG 2/WK FOR 30 WK (STUDY DURATION: LIFETIME), Tumor Site: Type of Lesion: BLADDER: TUMOR) “active; positive”; (Species: RAT, Strain/Sex: F344/FEMALE, Route: ORAL, Dose: 0, 46 MG/L IN DRINKING WATER 5 D/WK FOR 30 WK (STUDY DURATION: LIFETIME), Tumor Site: Type of Lesion: BLADDER: TUMOR, THYROID: FOLLICULAR TUMOR) “active; positive”; (Species: RAT, Strain/Sex: F344/MALE, Route: ORAL, Dose: 0, 46 MG/L IN DRINKING WATER 5 D/WK FOR 30 WK (STUDY DURATION: LIFETIME)) “inactive; negative”.

On to `CC1=CC(O)=NS(=O)(=O)O1`, for which the carcinogen call was “inactive; negative” (Species: MOUSE, Strain/Sex: SWISS/FEMALE, Route: ORAL, Dose: 0, 3000, 10000, 30000 PPM IN DIET FOR 80 WK (STUDY DURATION: 80 WK), Dose: 0, 3000, 10000, 30000 PPM IN DIET FOR 80 WK (STUDY DURATION: 80 WK)); “inactive; negative” (Species: MOUSE, Strain/Sex: SWISS/MALE, Route: ORAL, Dose: 0, 3000, 10000, 30000 PPM IN DIET FOR 80 WK (STUDY DURATION: 80 WK), Dose: 0, 3000, 10000, 30000 PPM IN DIET FOR 80 WK (STUDY DURATION: 80 WK)); “inactive; negative” (Species: RAT, Strain/Sex: CPB-WK SPF/FEMALE, Route: ORAL, Dose: 0, 3000, 10000, 30000 PPM IN DIET FOR 113 WK (STUDY DURATION: 113 WK), Dose: 0, 3000, 10000, 30000 PPM IN DIET FOR 113 WK (STUDY DURATION: 113 WK)); “inactive; negative” (Species: RAT, Strain/Sex: CPB-WK SPF/MALE, Route: ORAL, Dose: 0, 3000, 10000, 30000 PPM IN DIET FOR 120 WK (STUDY DURATION: 120 WK), Dose: 0, 3000, 10000, 30000 PPM IN DIET FOR 120 WK (STUDY DURATION: 120 WK)).

With `Cc1ccc(/C(=C\CN2CCCC2)c2ccccn2)cc1`, the carcinogen call was “inactive; negative” (Species: MOUSE, Strain/Sex: B6C3F1/FEMALE, Route: ORAL, Dose: 0, 500, 2000, 4000 PPM IN DIET FOR 2 YR (STUDY DURATION: 2 YR), Dose: 0, 500, 2000, 4000 PPM IN DIET FOR 2 YR (STUDY DURATION: 2 YR)); “inactive; negative” (Species: MOUSE, Strain/Sex: B6C3F1/MALE, Route: ORAL, Dose: 0, 500, 2000, 4000 PPM IN DIET FOR 2 YR (STUDY DURATION: 2 YR), Dose: 0, 500, 2000, 4000 PPM IN DIET FOR 2 YR (STUDY DURATION: 2 YR)); “inactive; negative” (Species: RAT, Strain/Sex: F344/FEMALE, Route: ORAL, Dose: 0, 250, 1000, 2000 PPM IN DIET FOR 103 WK (STUDY DURATION: 104 WK), Dose: 0, 250, 1000, 2000 PPM IN DIET FOR 103 WK (STUDY DURATION: 104 WK)); “inactive; negative” (Species: RAT, Strain/Sex: F344/MALE, Route: ORAL, Dose: 0, 250, 1000, 2000 PPM IN DIET FOR 103 WK (STUDY DURATION: 104 WK), Dose: 0, 250, 1000, 2000 PPM IN DIET FOR 103 WK (STUDY DURATION: 104 WK)).
